Measurements taken from ChEMBL document CHEMBL1139381 (J Med Chem, 2009).

Assays:
[1] = test system: Plasmodium falciparum; assay: Antimalarial activity after 72 hrs against chloroquine-sensitive Plasmodium falciparum D10 infected human A+ erythrocytes in Makler LDH reporter assay; format: functional, organism-based; conditions: D10, 72 h
[2] = test system: Plasmodium falciparum; assay: Antimalarial activity after 72 hrs against chloroquine-resistant Plasmodium falciparum W2 infected human A+ erythrocytes by Makler LDH reporter assay; format: functional, organism-based; conditions: W2, 72 h
[3] = test system: Plasmodium falciparum; assay: Antimalarial activity after 24 hrs against chloroquine-sensitive Plasmodium falciparum 3D7 infected human A+ erythrocytes by [3H]hypoxanthine uptake; format: functional, organism-based
[4] = test system: Plasmodium falciparum; assay: Antimalarial activity after 24 hrs against chloroquine-resistant synchronous Plasmodium falciparum K1 infected human A+ erythrocytes by [3H]hypoxanthine uptake; format: functional, organism-based
[5] = test system: Plasmodium chabaudi; assay: Antimalarial activity as reduced parasitaemia against Plasmodium chabaudi AS infected CD1 mice (Mus musculus) at 50 mg/kg/day peroral dose; format: functional; set-up: scale not given: the % may be the effect or the level left; conditions: route oral
[6] = test system: Plasmodium berghei; assay: Antimalarial activity as reduced parasitaemia against Plasmodium berghei ANKA infected CD1 mice (Mus musculus) at 30 mg/kg/day intraperitoneal dose over 4 days; format: functional; set-up: scale not given: the % may be the effect or the level left
[7] = target: T1, Histidine-rich protein PFHRP-II (Plasmodium falciparum) (UniProt P05227); assay: Inhibition of beta-hematin assessed as molar equivalents at pH 2.7 after 18 hrs by spectrophotometric microassay relative to hemin; format: functional
T1 sequence (whole entry): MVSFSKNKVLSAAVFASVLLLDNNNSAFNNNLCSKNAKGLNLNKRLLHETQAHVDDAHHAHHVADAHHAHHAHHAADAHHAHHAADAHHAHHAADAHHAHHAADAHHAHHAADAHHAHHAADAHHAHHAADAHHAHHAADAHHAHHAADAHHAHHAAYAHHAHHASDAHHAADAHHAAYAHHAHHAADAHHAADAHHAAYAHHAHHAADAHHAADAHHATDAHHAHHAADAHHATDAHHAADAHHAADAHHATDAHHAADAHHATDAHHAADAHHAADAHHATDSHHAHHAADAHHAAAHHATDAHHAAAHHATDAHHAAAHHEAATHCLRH

[8] = test system: Plasmodium falciparum; assay: Antimalarial activity after 48 hrs against chloroquine-sensitive Plasmodium falciparum NF54 infected human A+ erythrocytes by [3H]hypoxanthine uptake; format: functional, organism-based
[9] = test system: Plasmodium falciparum; assay: Antimalarial activity after 48 hrs against chloroquine-resistant asynchronous Plasmodium falciparum K1 infected human A+ erythrocytes by [3H]hypoxanthine uptake; format: functional, organism-based
[10] = Cytotoxicity against mouse NSO cells by MTT assay; format: cell-based; conditions: read-out: TC50 (the source's name)
[11] = Cytotoxicity against human Daudi cells by MTT assay; format: cell-based; conditions: read-out: TC50 (the source's name)
[12] = Cytotoxicity against PHA-stimulated human lymphocytes by MTT assay; format: cell-based, Lymphocyte; conditions: read-out: TC50 (the source's name)
[13] = Cytotoxicity against human KB cells by MTT assay; format: cell-based; conditions: read-out: TC50 (the source's name)
[14] = Apparent volume of distribution in CD-COBS rat at 5 mg/kg, iv; format: ADME, organism-based; set-up: dose 5 mg/kg, route intravenous; conditions: in vivo
[15] = Elimination half life in CD-COBS rat at 5 mg/kg, iv; format: ADME, organism-based; set-up: dose 5 mg/kg, route intravenous; conditions: in vivo
[16] = test system: Plasmodium berghei; assay: Antimalarial activity as reduced parasitaemia against Plasmodium berghei ANKA infected CD1 mice (Mus musculus) at 50 mg/kg/day peroral dose over 4 days; format: functional; set-up: scale not given: the % may be the effect or the level left; conditions: route oral
[17] = test system: Plasmodium berghei; assay: Antimalarial activity as increased survival against Plasmodium berghei ANKA infected CD1 mice (Mus musculus) at 50 mg/kg/day peroral dose over 4 days; format: functional; conditions: route oral
[18] = Ratio of drug level in blood to plasma of CD-COBS rat at 5 mg/kg, iv; format: ADME, organism-based; set-up: dose 5 mg/kg, route intravenous; conditions: blood and plasma
[19] = test system: Rattus norvegicus; assay: AUC (0 to t) in CD-COBS rat at 50 mg/kg, po after 60 mins; format: ADME, organism-based, Plasma; set-up: time < 1 hr, dose 50 mg/kg, route oral; conditions: in vivo, 1 h
[20] = Cmax in CD-COBS rat at 50 mg/kg, po after 60 mins; format: ADME, organism-based; set-up: time < 1 hr, dose 50 mg/kg, route oral; conditions: in vivo, read-out: AUC
[21] = test system: Mus musculus; assay: AUC (0 to t) in CD1 albino mouse at 50 mg/kg, po after 60 mins; format: ADME, organism-based, Plasma; set-up: time < 1 hr, dose 50 mg/kg, route oral; conditions: in vivo, 1 h
[22] = Cmax in CD1 albino mouse at 50 mg/kg, po after 60 mins; format: ADME, organism-based; set-up: dose 50 mg/kg, route oral; conditions: in vivo
[23] = test system: Liver; assay: AUC (0 to t) in CD1 albino mouse liver at 50 mg/kg, po after 180 mins; format: ADME, organism-based; set-up: time < 3 hr, dose 50 mg/kg, route oral; conditions: in vivo, 3 h
[24] = test system: Liver; assay: AUC (0 to t) in CD-COBS rat liver at 50 mg/kg, po after 180 mins; format: ADME, organism-based; set-up: time < 3 hr, dose 50 mg/kg, route oral; conditions: in vivo, 3 h
[25] = Ratio of drug level in liver to plasma of CD-COBS rat at 50 mg/kg, po after 180 mins; format: ADME, organism-based; set-up: dose 50 mg/kg, route oral; conditions: liver and plasma
[26] = Ratio of drug level in liver to plasma of CD1 albino mouse at 50 mg/kg, po after 180 mins; format: ADME, organism-based; set-up: dose 50 mg/kg, route oral; conditions: liver and plasma
[27] = Liver concentration in CD-COBS rat at 50 mg/kg, po after 180 mins
[28] = Liver concentration in CD1 albino mouse at 50 mg/kg, po after 180 mins
[29] = test system: Plasmodium chabaudi; assay: Antimalarial activity as reduced parasitaemia against Plasmodium chabaudi AS infected CD1 mice (Mus musculus) at 10 mg/kg/day peroral dose over 4 days; format: functional; set-up: scale not given: the % may be the effect or the level left; conditions: route oral
[30] = test system: Plasmodium berghei; assay: Antimalarial activity as increased survival against Plasmodium berghei ANKA infected CD1 mice (Mus musculus) at 10 mg/kg/day peroral dose over 4 days; format: functional; conditions: route oral
[31] = test system: Plasmodium berghei; assay: Antimalarial activity as reduced parasitaemia against Plasmodium berghei ANKA infected CD1 mice (Mus musculus) at 150 mg/kg/day oral dose over 4 days; set-up: scale not given: the % may be the effect or the level left

Row | Structure (SMILES) | IC50 [1] [nM] | IC50 [2] [nM] | IC50 [3] [nM] | IC50 [4] [nM] | Activity [5] [%] | IC50 [8] [nM] | IC50 [9] [nM] | further results
1 | Clc1ccc([C@](c2ccccc2)(c2ccc(CN3CCCC3)cc2)n2ccnc2)cc1 | 130 | 59 | 7 | 5 | 94.8 | – | – | Activity [6]: 37.6%; Ratio [7]: 2.5
2 | COc1ccc2nc3cc(Cl)ccc3c(NC(c3ccc(Cl)cc3)(c3ccc(Cl)cc3)c3ccc(CN4CCCC4)cc3)c2c1 | 143 | 149 | – | – | – | 135 | 199 | –
3 | Clc1ccc(C(Nc2ccnc3cc(Cl)ccc23)(c2ccc(Cl)cc2)c2ccc(CN3CCCC3)cc2)cc1 | 48 | 56 | – | – | – | 16 | 28 | –
4 | COc1ccc2nccc(NC(c3ccc(CN4CCCC4)cc3)c3cccc(Cl)c3)c2c1 (racemic) | 40 | 55 | – | – | – | 39 | 65 | –
5 | Clc1cccc(C(Nc2ccnc3cc(Cl)ccc23)c2ccc(CN3CCOCC3)cc2)c1 (racemic) | 142 | 220 | – | – | – | 43 | 62 | –
6 | COc1ccc2nccc(NC(c3ccc(CN4CCOCC4)cc3)c3cccc(Cl)c3)c2c1 (racemic) | 86 | 127 | – | – | – | 43 | 67 | –
7 | COc1ccc2nc3cc(Cl)ccc3c(NC(c3ccc(Cl)cc3)c3ccc(CN4CCCC4)cc3)c2c1 (racemic) | 49 | 59 | 1 | 8 | 99.9 | 19 | 20 | CC50 [10]: 11100 nM; CC50 [11]: 11100 nM; CC50 [12]: 16600 nM
8 | Clc1ccc(C(Nc2ccnc3cc(Cl)ccc23)c2ccc(CN3CCOCC3)cc2)cc1 (racemic) | 87 | 84 | – | – | – | 19 | 21 | –
9 | Clc1ccc(C(Nc2ccnc3cc(Cl)ccc23)c2ccc(CN3CCCC3)cc2)cc1 (racemic) | 46 | 72 | 3.7 | 9 | 99.5 | 13 | 14 | CC50 [10]: 8600 nM; CC50 [11]: 8600 nM; CC50 [12]: 17300 nM; CC50 [13]: 19600 nM; Vd [14]: 40 L/kg; half-life [15]: 0.733 h
10 | COc1ccc2nccc(NC(c3ccc(Cl)cc3)c3ccc(CN4CCCC4)cc3)c2c1 (racemic) | 57 | 82 | 8 | 60 | – | 32 | 32 | CC50 [13]: 8500 nM
11 | COc1ccc2nccc(NC(c3ccc(Cl)cc3)c3ccc(CN4CCOCC4)cc3)c2c1 (racemic) | 67 | 65 | – | – | – | 33 | 54 | –
12 | FC(F)(F)c1cc(NC(c2ccc(Cl)cc2)c2ccc(CN3CCCC3)cc2)c2cccc(C(F)(F)F)c2n1 (racemic) | 1240 | 1370 | 100 | 450 | – | – | – | CC50 [13]: 213000 nM
13 | Clc1ccc(C(Nc2ccnc3cc(Cl)ccc23)(c2ccccc2)c2ccc(CN3CCCC3)cc2)cc1 (racemic) | 40 | 51 | 3 | 22 | 99.9 | – | – | –
14 | FC(F)(F)c1ccc2c(NC(c3ccc(Cl)cc3)c3ccc(CN4CCCC4)cc3)ccnc2c1 (racemic) | 61 | 90 | – | 30 | 99.6 | 33 | 20 | CC50 [10]: 12100 nM; CC50 [11]: 14100 nM; CC50 [12]: 24200 nM; CC50 [13]: 5500 nM
15 | Clc1cccc(C(Nc2ccnc3cc(Cl)ccc23)c2ccc(CN3CCCC3)cc2)c1 (racemic) | 21 | 22 | 24 | 65 | 98 | 12 | 16 | CC50 [10]: 23800 nM; CC50 [11]: 34600 nM; CC50 [12]: 54100 nM; Activity [16]: 98%; Survival [17]: 18 days; Ratio [7]: 1.33; Vd [14]: 48 L/kg; half-life [15]: 3 h; blood plasma ratio [18]: 1.1; AUC [19]: 422 ng·h/mL; Cmax [20]: 180 ng/mL; AUC [21]: 725 ng·h/mL; Cmax [22]: 330 ng/mL; AUC [23]: 7061 µg/g; AUC [24]: 2945 µg/g; Kp at 3 h [25]: > 100; Kp at 3 h [26]: > 100; concentration at 3 h [27]: 30500 ng/g; concentration at 3 h [28]: 52200 ng/g
16 | FC(F)(F)c1ccc2c(NC(c3ccc(CN4CCOCC4)cc3)c3cccc(Cl)c3)ccnc2c1 (racemic) | 234 | 304 | – | – | – | – | – | –
17 | CCN(CC)CCCC(C)Nc1ccnc2cc(Cl)ccc12 (stereo not given) [CHLOROQUINE] | – | – | – | – | – | – | – | CC50 [10]: 14900 nM; CC50 [11]: 16700 nM; CC50 [12]: 18600 nM; Activity [29]: 99.9%; Survival [30]: 16.3 days
18 | Clc1ccccc1C(c1ccccc1)(c1ccccc1)n1ccnc1 [CLOTRIMAZOLE] | – | – | – | – | 6 | – | – | Activity [31]: 28.3%
